Results: the supplement of paper PMC10307832

Compound: COc1cccc2c1C(=O)c1c(O)c3c(c(O)c1C2=O)C[C@@](O)(C(=O)CO)C[C@@H]3O[C@H]1C[C@H](N)[C@H](O)[C@H](C)O1 [Doxorubicin] + CC1(C)CCC(c2ccc(Cl)cc2)=C(CN2CCN(c3ccc(C(=O)NS(=O)(=O)c4ccc(N[C@H](CCN5CCOCC5)CSc5ccccc5)c(S(=O)(=O)C(F)(F)F)c4)cc3)CC2)C1 [Navitoclax] (partner 0.5 µM)
Test: relative viability (nuclei count vs DMSO), 5 days (fraction); higher = more cells survive
Conditions: first compound 0.001 µM
Method in brief: (§1)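 Relative viability was taken as the ratio of nuclei in treated wells to nuclei in vehicle wells. Lung cancer cell lines in 1536-well plates received compounds by pin tool one day after seeding, either one drug alone or a fixed anchor-drug dose plus five library-drug doses (not always all listed) in √10 steps. Nuclei were counted on 4× images after 5 days of treatment, and values are medians of duplicate plates.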

Cell Line | relative viability
RERF-LC-KJ | 1.05
NCI-H1651 | 0.991
EBC-1 | 0.488
NCI-H1734 | 0.788
Calu-6 | 0.835
HCC-44 | 1.01
NCI-H1703 | 0.735
NCI-H727 | 0.402
IA-LM | 0.616
A549 | 1.15
NCI-H1299 | 1.05
NCI-H1792 | 0.634

Same assay, conditions: first compound 0.003162 µM

Cell Line | relative viability
RERF-LC-KJ | 0.765
NCI-H1651 | 1.19
EBC-1 | 0.524
NCI-H1734 | 1.02
Calu-6 | 0.91
HCC-44 | 1.15
NCI-H1703 | 0.902
NCI-H727 | 0.474
IA-LM | 0.821
A549 | 0.977
NCI-H1299 | 1.06
NCI-H1792 | 0.556

Same assay, conditions: first compound 0.01 µM

Cell Line | relative viability
RERF-LC-KJ | 1.12
NCI-H1651 | 0.801
EBC-1 | 0.377
NCI-H1734 | 0.847
Calu-6 | 0.581
HCC-44 | 0.969
NCI-H1703 | 0.386
NCI-H727 | 0.492
IA-LM | 0.6
A549 | 0.468
NCI-H1299 | 1.08
NCI-H1792 | 0.62

Same assay, conditions: first compound 0.03162 µM

Cell Line | relative viability
NCI-H1651 | 0.436
EBC-1 | 0.171
NCI-H1734 | 0.696
Calu-6 | 0.24
HCC-44 | 1.01
NCI-H1703 | 0.195
NCI-H727 | 0.462
IA-LM | 0.278
A549 | 0.0557
NCI-H1299 | 1.06
NCI-H1792 | 0.582

Same assay, conditions: first compound 0.1 µM

Cell Line | relative viability
RERF-LC-KJ | 1.05
NCI-H1651 | 0.204
EBC-1 | 0.123
NCI-H1734 | 0.84
Calu-6 | 0.113
HCC-44 | 1.03
NCI-H1703 | 0.14
NCI-H727 | 0.455
IA-LM | 0.0497
A549 | 0.0324
NCI-H1299 | 0.947
NCI-H1792 | 0.597

Compound: COc1cccc2c1C(=O)c1c(O)c3c(c(O)c1C2=O)C[C@@](O)(C(=O)CO)C[C@@H]3O[C@H]1C[C@H](N)[C@H](O)[C@H](C)O1 [Doxorubicin] + Nc1nc2[nH]cc(CCc3ccc(C(=O)N[C@@H](CCC(=O)O)C(=O)O)cc3)c2c(=O)[nH]1 [Pemetrexed] (partner 0.2 µM)
Test: as above
Conditions: first compound 0.001 µM
Method in brief: as §1

Cell Line | relative viability
NCI-H2342 | 0.802
RERF-LC-KJ | 0.458
NCI-H1651 | 0.591
NCI-H1734 | 0.468
NCI-H661 | 0.894
HCC-44 | 0.625
NCI-H1648 | 0.756
NCI-H358 | 0.152
NCI-H522 | 0.949
NCI-H650 | 1.05
NCI-H1563 | 0.734
NCI-H1792 | 0.43
LCLC-103H | 0.499

Same assay, conditions: first compound 0.003162 µM

Cell Line | relative viability
NCI-H2342 | 0.843
RERF-LC-KJ | 0.496
NCI-H1651 | 0.628
NCI-H1734 | 0.404
NCI-H661 | 1.02
HCC-44 | 0.698
NCI-H1648 | 0.746
NCI-H358 | 0.183
NCI-H522 | 1.02
SW 900 | 0.461
NCI-H650 | 0.846
NCI-H1563 | 0.825
NCI-H1792 | 0.889
LCLC-103H | 0.484

Same assay, conditions: first compound 0.01 µM

Cell Line | relative viability
NCI-H2342 | 0.761
RERF-LC-KJ | 0.418
NCI-H1651 | 0.604
NCI-H1734 | 0.398
NCI-H661 | 0.891
HCC-44 | 0.625
NCI-H1648 | 0.724
NCI-H358 | 0.179
NCI-H522 | 1.16
SW 900 | 0.465
NCI-H650 | 0.926
NCI-H1563 | 0.838
NCI-H1792 | 0.809
LCLC-103H | 0.458

Same assay, conditions: first compound 0.03162 µM

Cell Line | relative viability
NCI-H2342 | 0.711
RERF-LC-KJ | 0.39
NCI-H1651 | 0.57
NCI-H1734 | 0.448
NCI-H661 | 0.754
HCC-44 | 0.685
NCI-H1648 | 0.695
NCI-H358 | 0.156
NCI-H522 | 0.844
SW 900 | 0.498
NCI-H650 | 0.867
NCI-H1563 | 0.777
NCI-H1792 | 0.691
LCLC-103H | 0.467

Same assay, conditions: first compound 0.1 µM

Cell Line | relative viability
NCI-H2342 | 0.818
RERF-LC-KJ | 0.382
NCI-H1651 | 0.588
NCI-H1734 | 0.421
NCI-H661 | 0.643
HCC-44 | 0.63
NCI-H1648 | 0.632
NCI-H358 | 0.169
NCI-H522 | 0.878
SW 900 | 0.412
NCI-H650 | 0.784
NCI-H1563 | 0.536
NCI-H1792 | 0.466
LCLC-103H | 0.466

Compound: COc1cccc2c1C(=O)c1c(O)c3c(c(O)c1C2=O)C[C@@](O)(C(=O)CO)C[C@@H]3O[C@H]1C[C@H](N)[C@H](O)[C@H](C)O1 [Doxorubicin] + COc1cc2c(Oc3ccc(NC(=O)C4(C(=O)Nc5ccc(F)cc5)CC4)cc3F)ccnc2cc1OCCCN1CCOCC1 [Foretinib] (partner 0.25 µM)
Test: as above
Conditions: first compound 0.001 µM
Method in brief: as §1

Cell Line | relative viability
NCI-H2342 | 1.08
NCI-H1623 | 0.766
RERF-LC-KJ | 0.9
NCI-H1651 | 0.842
EBC-1 | 0.114
NCI-H1734 | 0.854
NCI-H661 | 1.01
Calu-6 | 0.945
NCI-H727 | 0.894
NCI-H358 | 0.743
IA-LM | 1.04
A549 | 0.911
